The subject of data set [1] is HFF-UL50, HFFs, MRC-5 and 293T cells. Description: Neutral Red cytotoxicity of Shield-1 on four cell types. The settings on record: Shield-1 0.04–10 µM, 4 (293T) or 7 d post-treatment.
Description: Analysis of putative cytotoxicity of the synthetic ligand Shield-1 on different cell
types. Four different types of cells (recombinant complementing cells HFF-UL50, primary HFFs and
and MRC-5 cells, and immortalized 293T) were treated with various concentrations of Shield-1
(0.04–10 µM as shown on the right). At 4 (293T) or 7 d post-treatment, cell viability was assessed by
Neutral Red staining. Data are presented as mean values ± SD over three biological replicates.
Cytotoxic staurosporine (STP, 1 µM) served as a positive control, DMSO-treated cells as a negative
For another data set, the target named is T1, SmBiT::UL50-HA (human cytomegalovirus (HCMV), UniProt P16791 1-397).
T1 construct: also called pUL50; HCMV core NEC groove protein; source: 293T cells, transiently transfected (PEI), in live cells
T1 sequence: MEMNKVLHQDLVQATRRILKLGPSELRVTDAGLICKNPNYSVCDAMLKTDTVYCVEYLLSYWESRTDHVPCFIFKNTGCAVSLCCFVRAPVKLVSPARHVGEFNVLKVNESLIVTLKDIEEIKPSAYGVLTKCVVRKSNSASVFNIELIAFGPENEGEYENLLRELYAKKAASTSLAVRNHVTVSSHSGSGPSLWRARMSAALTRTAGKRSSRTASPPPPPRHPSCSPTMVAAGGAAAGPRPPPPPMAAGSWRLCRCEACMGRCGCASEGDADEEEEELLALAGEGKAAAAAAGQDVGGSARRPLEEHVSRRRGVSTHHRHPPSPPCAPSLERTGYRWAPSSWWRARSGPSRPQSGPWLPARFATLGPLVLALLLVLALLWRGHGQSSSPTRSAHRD
Description: split reporter (BiFC, NanoBiT); NanoBiT in 293T cells cotransfected with LgBiT and SmBiT constructs; NanoGlo Live Cell Assay, luminescence at 37 °C; background of LgBiT without SmBiT subtracted; some samples with warhead compounds (LDC compounds, ibrutinib and others). The conditions noted are these: partners not purified.

Consider `CC[C@H](C(=O)N1CCCC[C@H]1C(=O)O[C@H](CCc1ccc(OC)c(OC)c1)c1cccc(OCCN2CCOCC2)c1)c1cc(OC)c(OC)c(OC)c1` [Shield-1], for which the “cytotoxic potential (in words)” value in data set [1] is listed as “low cytotoxic potential”.

B1: LgBiT::UL53(1–87)-Flag (domain or fragment)
chain: MSSVSGVRTPRERRSALRSLLRKRRQRELASKVASTVNGATSANNHGEPPSPADARPRLTLHDLHDIFREHPELELKYLNMMKMAIT
notes: source: 293T cells, transiently transfected (PEI), in live cells
Turning to B1, the “NanoBiT signal strength relative to LgBiT::UL53-Flag + SmBiT::UL50-HA (100%)” value with SmBiT::UL50-HA amounted to 288%.
